ChEMBL document CHEMBL4311999, “3-Hydrazinoisatin-based benzenesulfonamides as novel carbonic anhydrase inhibitors endowed with anticancer activity: Synthesis, in vitro biological evaluation and in silico insights” (Eur J Med Chem, 2019)

How the values were obtained:
BT-549 = assay: Growth inhibition of human BT549 cells at 10 uM incubated for 48 hrs by sulforhodamine B assay relative to control; type: functional; conditions: BT-549, 48 h, read-out: GI
NCI-H226 = assay: Growth inhibition of human NCI-H226 cells at 10 uM incubated for 48 hrs by sulforhodamine B assay relative to control; type: functional; conditions: NCI-H226, 48 h, read-out: GI
SNB-19 = assay: Growth inhibition of human SNB19 cells at 10 uM incubated for 48 hrs by sulforhodamine B assay relative to control; type: functional; conditions: SNB-19, 48 h, read-out: GI
ACHN = assay: Growth inhibition of human ACHN cells at 10 uM incubated for 48 hrs by sulforhodamine B assay relative to control; type: functional; conditions: read-out: GI
SK-MEL-2 = assay: Growth inhibition of human SK-MEL-2 cells at 10 uM incubated for 48 hrs by sulforhodamine B assay relative to control; type: functional; conditions: SK-MEL-2, 48 h, read-out: GI
UACC-62 = assay: Growth inhibition of human UACC62 cells at 10 uM incubated for 48 hrs by sulforhodamine B assay relative to control; type: functional; conditions: UACC-62, 48 h, read-out: GI
A549 = assay: Growth inhibition of human A549/ATCC cells at 10 uM incubated for 48 hrs by sulforhodamine B assay relative to control; type: functional; conditions: A549, 48 h, read-out: GI
A498 = assay: Growth inhibition of human A498 cells at 10 uM incubated for 48 hrs by sulforhodamine B assay relative to control; type: functional; conditions: A498, 48 h, read-out: GI
Carbonic anhydrase 9 [1] = molecular target: T1, Carbonic anhydrase 9 (Homo sapiens, UniProt Q16790); assay: Inhibition of recombinant human carbonic anhydrase 9 preincubated for 15 mins by phenol red dye based stopped flow CO2 hydration assay
SK-MEL-5 = assay: Growth inhibition of human SK-MEL-5 cells at 10 uM incubated for 48 hrs by sulforhodamine B assay relative to control; type: functional; conditions: SK-MEL-5, 48 h, read-out: GI
RXF 393 = assay: Growth inhibition of human RXF393 cells at 10 uM incubated for 48 hrs by sulforhodamine B assay relative to control; type: functional; conditions: RXF 393, 48 h, read-out: GI
TK-10 = assay: Growth inhibition of human TK10 cells at 10 uM incubated for 48 hrs by sulforhodamine B assay relative to control; type: functional; conditions: TK-10, 48 h, read-out: GI
MDA-MB-231 = assay: Growth inhibition of human MDA-MB-231 cells at 10 uM incubated for 48 hrs by sulforhodamine B assay relative to control; type: functional; conditions: MDA-MB-231, 48 h, read-out: GI
SN12C = assay: Growth inhibition of human SN12C cells at 10 uM incubated for 48 hrs by sulforhodamine B assay relative to control; type: functional; conditions: read-out: GI
HCT-15 = assay: Growth inhibition of human HCT15 cells at 10 uM incubated for 48 hrs by sulforhodamine B assay relative to control; type: functional; conditions: HCT-15, 48 h, read-out: GI
CAKI-1 = assay: Growth inhibition of human Caki1 cells at 10 uM incubated for 48 hrs by sulforhodamine B assay relative to control; type: functional; conditions: CAKI-1, 48 h, read-out: GI
HCT-116 = assay: Growth inhibition of human HCT116 cells at 10 uM incubated for 48 hrs by sulforhodamine B assay relative to control; type: functional; conditions: HCT-116, 48 h, read-out: GI
MDA-MB-468 = assay: Growth inhibition of human MDA-MB-468 cells at 10 uM incubated for 48 hrs by sulforhodamine B assay relative to control; type: functional; conditions: MDA-MB-468, 48 h, read-out: GI
OVCAR-4 = assay: Growth inhibition of human OVCAR4 cells at 10 uM incubated for 48 hrs by sulforhodamine B assay relative to control; type: functional; conditions: OVCAR-4, 48 h, read-out: GI
OVCAR-8 = assay: Growth inhibition of human OVCAR8 cells at 10 uM incubated for 48 hrs by sulforhodamine B assay relative to control; type: functional; conditions: OVCAR-8, 48 h, read-out: GI
NCI-H460 = assay: Growth inhibition of human NCI-H460 cells at 10 uM incubated for 48 hrs by sulforhodamine B assay relative to control; type: functional; conditions: NCI-H460, 48 h, read-out: GI
SW-620 = assay: Growth inhibition of human SW620 cells at 10 uM incubated for 48 hrs by sulforhodamine B assay relative to control; type: functional; conditions: SW-620, 48 h, read-out: GI
HOP-92 = assay: Growth inhibition of human HOP92 cells at 10 uM incubated for 48 hrs by sulforhodamine B assay relative to control; type: functional; conditions: HOP-92, 48 h, read-out: GI
EKVX = assay: Growth inhibition of human EKVX cells at 10 uM incubated for 48 hrs by sulforhodamine B assay relative to control; type: functional; conditions: read-out: GI
786-0 = assay: Growth inhibition of human 786-0 cells at 10 uM incubated for 48 hrs by sulforhodamine B assay relative to control; type: functional; conditions: 786-0, 48 h, read-out: GI
UO-31 = assay: Growth inhibition of human UO31 cells at 10 uM incubated for 48 hrs by sulforhodamine B assay relative to control; type: functional; conditions: UO-31, 48 h, read-out: GI
HT-29 = assay: Growth inhibition of human HT-29 cells at 10 uM incubated for 48 hrs by sulforhodamine B assay relative to control; type: functional; conditions: HT-29, 48 h, read-out: GI
MCF7 = assay: Growth inhibition of human MCF7 cells at 10 uM incubated for 48 hrs by sulforhodamine B assay relative to control; type: functional; conditions: MCF7, 48 h, read-out: GI
UACC-257 = assay: Growth inhibition of human UACC257 cells at 10 uM incubated for 48 hrs by sulforhodamine B assay relative to control; type: functional; conditions: UACC-257, 48 h, read-out: GI
CCRF-CEM = assay: Growth inhibition of human CCRF-CEM cells at 10 uM incubated for 48 hrs by sulforhodamine B assay relative to control; type: functional; conditions: read-out: GI
U-251 = assay: Growth inhibition of human U251 cells at 10 uM incubated for 48 hrs by sulforhodamine B assay relative to control; type: functional; conditions: U-251, 48 h, read-out: GI
RPMI-8226 = assay: Growth inhibition of human RPMI8226 cells at 10 uM incubated for 48 hrs by sulforhodamine B assay relative to control; type: functional; conditions: RPMI-8226, 48 h, read-out: GI
KM12 = assay: Growth inhibition of human KM12 cells at 10 uM incubated for 48 hrs by sulforhodamine B assay relative to control; type: functional; conditions: KM12, 48 h, read-out: GI
DU-145 = assay: Growth inhibition of human DU145 cells at 10 uM incubated for 48 hrs by sulforhodamine B assay relative to control; type: functional; conditions: DU-145, 48 h, read-out: GI
NCI/ADR-RES = assay: Growth inhibition of human NCI/ADR-RES cells at 10 uM incubated for 48 hrs by sulforhodamine B assay relative to control; type: functional; conditions: read-out: GI
T47D = assay: Growth inhibition of human T47D cells at 10 uM incubated for 48 hrs by sulforhodamine B assay relative to control; type: functional; conditions: read-out: GI
NCI-H522 = assay: Growth inhibition of human NCI-H522 cells at 10 uM incubated for 48 hrs by sulforhodamine B assay relative to control; type: functional; conditions: NCI-H522, 48 h, read-out: GI
PC-3 = assay: Growth inhibition of human PC3 cells at 10 uM incubated for 48 hrs by sulforhodamine B assay relative to control; type: functional; conditions: PC-3, 48 h, read-out: GI
Carbonic anhydrase 9 [2] = molecular target: T1, Carbonic anhydrase 9; assay: Inhibition of human recombinant carbonic anhydrase 9 by stopped flow CO2 hydration assay

Molecule `NS(=O)(=O)c1ccc(N/N=C2\C(=O)N(Cc3ccccc3)c3ccccc32)cc1` has an inhibition of growth at 10 µM (BT-549) of 16%, an inhibition of growth at 10 µM (NCI-H226) of 21% and an inhibition of growth at 10 µM (SNB-19) of 13%. For the same molecule, the inhibition of growth at 10 µM (ACHN) was 14%, the inhibition of growth at 10 µM (SK-MEL-2) was 13% and the inhibition of growth at 10 µM (UACC-62) was 37%. For the same molecule, the inhibition of growth at 10 µM (A549) was 25%, the inhibition of growth at 10 µM (A498) was 10% and the Ki (Carbonic anhydrase 9 [1]) was 27.7 nM. The inhibition of growth at 10 µM (SK-MEL-5) was 12%, the inhibition of growth at 10 µM (RXF 393) was 10% and the inhibition of growth at 10 µM (TK-10) was 19%. For the same molecule, the inhibition of growth at 10 µM (MDA-MB-231) was 19%, the inhibition of growth at 10 µM (SN12C) was 19% and the inhibition of growth at 10 µM (HCT-15) was 13%. It also gave an inhibition of growth at 10 µM (CAKI-1) of 20%, an inhibition of growth at 10 µM (HCT-116) of 28% and an inhibition of growth at 10 µM (MDA-MB-468) of 27%. For the same molecule, the inhibition of growth at 10 µM (OVCAR-4) was 21%, the inhibition of growth at 10 µM (OVCAR-8) was 17% and the inhibition of growth at 10 µM (NCI-H460) was 20%. For the same molecule, the inhibition of growth at 10 µM (SW-620) was 18%, the inhibition of growth at 10 µM (HOP-92) was 34% and the inhibition of growth at 10 µM (EKVX) was 13%. It also gave an inhibition of growth at 10 µM (786-0) of 22%, an inhibition of growth at 10 µM (UO-31) of 38% and an inhibition of growth at 10 µM (HT-29) of 21%. It also gave an inhibition of growth at 10 µM (MCF7) of 21%, an inhibition of growth at 10 µM (UACC-257) of 11% and an inhibition of growth at 10 µM (CCRF-CEM) of 36%. The inhibition of growth at 10 µM (U-251) was 17%, the inhibition of growth at 10 µM (RPMI-8226) was 38% and the inhibition of growth at 10 µM (KM12) was 10%. For the same molecule, the inhibition of growth at 10 µM (DU-145) was 10%, the inhibition of growth at 10 µM (NCI/ADR-RES) was 20% and the inhibition of growth at 10 µM (T47D) was 42%. For the same molecule, the inhibition of growth at 10 µM (NCI-H522) was 46% and the inhibition of growth at 10 µM (PC-3) was 25%.
In the case of `NS(=O)(=O)c1ccc(CC/N=C2\NC(=O)/C(=C3/C(=O)Nc4ccc(F)cc43)S2)cc1`, the Ki (Carbonic anhydrase 9 [2]) is reported as 287 nM.
